In patent US20250228842A1, “USES OF A SOMATOSTATIN MODULATOR FOR THE TREATMENT OF CARCINOID SYNDROME” (Crinetics Pharmaceuticals, Inc., priority 2022, published 2025):

How the values were obtained:
[1] = Tolerability in studies on subjects with acromegaly; type: in vivo, human; conditions: 40 mg
[2] = tested on: insulin-like growth factor-1 (IGF-1) level; assay: Phase 2 acromegaly trials (ACROBAT Edge / Evolve): IGF-1 level; type: in vivo, human
Procedure: (§1) An open label exploratory study designed to evaluate the safety, efficacy, and pharmacokinetics of Compound A (also known as paltusotine) in subjects with acromegaly that are treated with somatostatin analogue (SSA) based treatment regimens.
10 mg HMG capsule formulation. Multiple capsules were swallowed with water depending on dose specified for a given period/cohort.
Primary Outcome Measures: Change from baseline (mean of Screening values) in insulin-like growth factor-1 (IGF-1) level [Time Frame: 13 Weeks].
Primary Outcome Measures: Proportion of subjects who meet responder criteria (based on the mean of two consecutive insulin-like growth factor-1 [IGF-1] measurements ≤upper limit of normal [ULN]) (Time Frame: 13 Weeks).
(§2) Secondary Outcome Measures: 1) Change in IGF-1 levels [Time Frame: From Week 10 to Week 13]. 2) Change in growth hormone (GH) levels [Time Frame: From Week 8 to Week 13]. 3) Change in patient assessed symptoms of acromegaly [Time Frame: From Week 10 to Week 13]. Total score computed by adding each of the individual acromegaly symptom intensities (headache pain, joint pain, sweating, fatigue, weakness in legs, swelling, numbness or tingling).
(§3) The primary hypothesis was that the group would show no change in the median IGF-1 at Week 13 versus baseline.

[3] = Phase 1 multi-cohort single dose study, plasma pharmacokinetics in healthy subjects; type: in vivo, human
Procedure: Cohort 1: To characterize performance of 10 mg tablets prepared by spray-dried dispersion (SDD) of Compound A-HCl salt.
Cohort 2: To evaluate the relative bioavailability of 10 mg SDD tablets compared to the Compound A-HCl hot melt granulation (HMG) formulation, 10 mg capsules. To determine the effect of timing of food administration on pharmacokinetics of low dose of the 10 mg SDD tablets.
Cohort 5: To determine the effect of the proton-pump inhibitor (PPI), lansoprazole, on the pharmacokinetics of a 60 mg dose of SDD tablets. To determine the effect of a low-fat meal on the pharmacokinetics of a 60 mg dose of SDD tablets.
The SDD tablets were evaluated. Up to twelve (12) healthy male and female subjects were enrolled in each cohort. Cohort 1 consisted of 4 periods: In Period 1, subjects were administered a proton-pump inhibitor (lansoprazole, 15 mg BID for 3 days (from Day-3), taken orally at least 30 min prior to a meal, once in the morning and once in the evening). On the fourth day (Day 1 of study), fasted subjects will take the last dose of lansoprazole (15 mg) 60 min prior to 20 mg Compound A (2×10 mg of the SDD tablets). In Period 2, fasted subjects were administered 20 mg Compound A (2×10 mg of the SDD tablets). In Period 3, fasted subjects were administered 20 mg Compound A (2×10 mg of the SDD tablets) with a high-fat, high-calorie meal. In Period 4, fasted subjects will take up to 80 mg Compound A (up to 8×10 mg of the SDD tablets). The actual dose was selected based on the pharmacokinetic data from Period 2.
For Period 1: In the evening before dosing (Day −1), subjects were administered their evening dose of 15 mg lansoprazole, provided an evening meal at least 30 min after administration of lansoprazole, and then were required to fast overnight (≥10 hr) on Day −1. […]
The cohort consisted of three periods. The PK of 60 mg paltusotine administered as 3×20 mg SDD tablets was assessed using the following criteria: effect of a low-fat meal on the PK of paltusotine (Period 1 and Period 3) and effect of the PPI lansoprazole on the PK of paltusotine (Period 2) as follows: […]

[4] = tested on: growth hormone (GH) levels; assay: Phase 2 acromegaly trials (ACROBAT Edge / Evolve): GH level; type: in vivo, human
Procedure: as §1, §2, §3

carcinoid syndrome = conditions: cited from earlier work
[5] = after 13 weeks of treatment, acromegaly patients previously treated with injected SRL depots

SMILES: Cl.N#Cc1cccc(-c2ccc3ncc(-c4cc(F)cc(F)c4)c(N4CCC(N)CC4)c3c2)c1O [Compound A-HCl, 3-[4-(4-amino-piperidin-1-yl)-3-(3,5-difluoro-phenyl)-quinolin-6-yl]-2-hydroxy-benzonitrile monohydrochloride]
- tolerability [1]: well tolerated
- steady state IGF-1 change vs baseline (last LA-SRL injection) ([2]; 10 and 20 mg per day, acromegaly patients previously treated with LA-SRLs): above baseline
- steady state IGF-1 change from baseline (last LA-SRL injection) ([2]; 30/day and 40 mg/day, acromegaly patients previously treated with LA-SRLs): near zero

SMILES: N#Cc1cccc(-c2ccc3ncc(-c4cc(F)cc(F)c4)c(N4CCC(N)CC4)c3c2)c1O [Compound A, 3-(4-(4-amino-piperidin-1-yl)-3-(3,5-difluoro-phenyl)-quinolin-6-yl)-2-hydroxy-benzonitrile]
- reduction of exposures (Cmax and AUC) ([3]; when administered with PPI, 60 mg): ~40%
- reduction of exposures (Cmax and AUC) ([3]; when administered with high-fat meal): > 80%
- reduction of exposures (Cmax and AUC) ([3]; when administered with low-fat meal, 60 mg): ~60%
- GH levels vs baseline [4, 5]: did not significantly change from baseline
- GH after withdrawal ([4]; after withdrawal): Rise in GH after withdrawal
- IGF-1 levels vs baseline [2, 5]: did not significantly change from baseline
- IGF-1 after withdrawal ([2]; within 2 weeks after withdrawal): Rise in IGF-1 after withdrawal

SMILES: C[C@@H](O)[C@@H]1NC(=O)[C@H](CCCCN)NC(=O)[C@@H](Cc2c[nH]c3ccccc23)NC(=O)[C@H](Cc2ccccc2)NC(=O)[C@@H](NC(=O)[C@H](N)Cc2ccccc2)CSSC[C@@H](C(=O)N[C@H](CO)[C@@H](C)O)NC1=O [octreotide]
- patients with carcinoid syndrome who respond (carcinoid syndrome): 80%
